Like-named read-outs stand apart in the source and are kept apart here.

For one data set, the target named is T1, CYP2B6 (Homo sapiens, UniProt P20813).
T1 sequence (P20813 1-491): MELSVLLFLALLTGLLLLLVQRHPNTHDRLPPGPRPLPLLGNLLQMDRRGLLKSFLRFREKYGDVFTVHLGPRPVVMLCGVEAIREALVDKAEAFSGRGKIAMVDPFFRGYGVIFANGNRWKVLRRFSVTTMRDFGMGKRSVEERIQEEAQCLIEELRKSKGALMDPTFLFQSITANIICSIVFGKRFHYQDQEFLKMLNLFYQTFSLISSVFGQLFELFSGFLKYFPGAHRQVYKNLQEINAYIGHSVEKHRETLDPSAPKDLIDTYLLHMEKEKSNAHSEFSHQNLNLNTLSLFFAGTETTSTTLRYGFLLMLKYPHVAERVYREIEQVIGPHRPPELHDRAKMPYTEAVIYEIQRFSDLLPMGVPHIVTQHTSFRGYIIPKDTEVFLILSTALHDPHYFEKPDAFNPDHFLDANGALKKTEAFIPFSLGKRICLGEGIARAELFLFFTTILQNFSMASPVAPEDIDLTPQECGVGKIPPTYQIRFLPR
Description: Incubation with recombinant CYP2B6. The settings on record: for t1/2: unit not given.

Data set [1] in a line: Whole blood stability, dog. As to the method: Procedures for blood Stability. • A. 398 μL of blood from each species was added to an incubation plate, which was pre-warmed at 37C for 15 minutes. • B. After the pre-incubation, 2 μL of working solution (test compounds or control compounds) was spiked to 398 μL of blood to reach a final concentration of 1 μM for test compounds and 5 μM for control compounds. The final concentration of organic solvents is 0.5%. The assays were performed in duplicate. • C. The reaction samples were incubated at 37C. • D. Aliquots of 50 μL were taken from the reaction samples at 0, 15, 30, 60 and 120 minutes. The reaction was stopped by the addition of 50 μL ultrapure water and 400 μL cold acetonitrile. • E. All samples were vortexed for 10 minutes, followed by centrifugation at 3,220 g for 40 minutes to precipitate proteins. 100 μL of the supernatant was then transferred to a new plate. The supernatant was diluted with ultrapure water as needed for detection by LC-MS/MS. Sample Analysis
Samples were analyzed by LC-MS/MS to measure the concentration of the test compounds.
All calculations were carried out using Microsoft Excel and according to standard analysis methods that are known in the art.

A further data set concerns the target T2, CYP2A6 (Homo sapiens, UniProt P11509).
T2 sequence (P11509 1-494): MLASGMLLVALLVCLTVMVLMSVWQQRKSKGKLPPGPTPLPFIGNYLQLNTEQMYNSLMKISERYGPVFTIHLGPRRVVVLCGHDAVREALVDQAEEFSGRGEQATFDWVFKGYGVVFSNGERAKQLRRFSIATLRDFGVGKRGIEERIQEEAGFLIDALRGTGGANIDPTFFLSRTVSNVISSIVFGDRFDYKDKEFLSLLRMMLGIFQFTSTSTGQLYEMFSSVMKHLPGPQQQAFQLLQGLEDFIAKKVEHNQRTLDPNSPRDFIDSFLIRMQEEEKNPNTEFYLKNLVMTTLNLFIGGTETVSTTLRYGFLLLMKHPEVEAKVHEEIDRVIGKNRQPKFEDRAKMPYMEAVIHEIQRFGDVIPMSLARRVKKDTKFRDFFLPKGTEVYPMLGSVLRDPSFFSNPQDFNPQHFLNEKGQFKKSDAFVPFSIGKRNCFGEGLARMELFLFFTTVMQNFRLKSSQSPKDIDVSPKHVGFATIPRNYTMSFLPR
The data set can be described thus: Incubation with recombinant CYP2A6. The settings on record: for t1/2: unit not given.

The target in a further data set is T3, CYP1A2 (Homo sapiens, UniProt P05177).
T3 sequence (P05177 1-516): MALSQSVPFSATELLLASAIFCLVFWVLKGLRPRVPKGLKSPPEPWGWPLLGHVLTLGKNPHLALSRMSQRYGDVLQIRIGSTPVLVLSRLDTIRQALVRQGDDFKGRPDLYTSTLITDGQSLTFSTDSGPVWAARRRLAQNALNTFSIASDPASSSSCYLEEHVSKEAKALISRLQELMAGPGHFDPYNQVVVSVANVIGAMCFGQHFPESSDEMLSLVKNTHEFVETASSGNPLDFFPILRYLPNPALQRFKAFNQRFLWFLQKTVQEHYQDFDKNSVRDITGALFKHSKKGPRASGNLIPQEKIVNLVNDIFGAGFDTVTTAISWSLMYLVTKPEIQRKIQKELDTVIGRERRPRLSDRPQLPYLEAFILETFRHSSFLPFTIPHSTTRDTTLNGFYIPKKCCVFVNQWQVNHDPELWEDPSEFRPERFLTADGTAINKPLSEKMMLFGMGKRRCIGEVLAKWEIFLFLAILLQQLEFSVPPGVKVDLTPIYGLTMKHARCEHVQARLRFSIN
The data set can be described thus: Incubation with recombinant CYP1A2.

Data set [2] concerns the target D2S (h) (agonist radioligand) (Homo sapiens, UniProt P14416). The settings on record: at the tested concentration; negative values set to zero.
Data set [3] concerns Cerep87 Safety Panel receptors. The data set can be described thus: Cerep87 Safety Panel (Eurofins), whole panel statements. Type of data set: binding.

D2S (h) (agonist radioligand), sequence (P14416 1-414 isoform P14416-2): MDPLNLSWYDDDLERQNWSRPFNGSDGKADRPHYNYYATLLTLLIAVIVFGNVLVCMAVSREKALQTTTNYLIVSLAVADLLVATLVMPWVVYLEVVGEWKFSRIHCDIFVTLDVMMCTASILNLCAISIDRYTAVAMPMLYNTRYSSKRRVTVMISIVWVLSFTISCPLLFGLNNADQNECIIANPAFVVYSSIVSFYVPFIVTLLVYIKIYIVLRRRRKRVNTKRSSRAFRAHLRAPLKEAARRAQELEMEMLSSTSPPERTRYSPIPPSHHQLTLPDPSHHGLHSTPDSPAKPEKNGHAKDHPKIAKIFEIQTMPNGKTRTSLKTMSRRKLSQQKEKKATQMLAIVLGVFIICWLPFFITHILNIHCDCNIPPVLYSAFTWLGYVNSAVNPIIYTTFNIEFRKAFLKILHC

In the case of `O[C@@](CCN1CCCCC1)(c1ccccc1)C1CCCCC1` [(R)-THP, (R)-trihexyphenidyl], the CLint on CYP2B6, at CYP2A6 and at CYP1A2 was 0.00 µL/min/pmol in each case. The t1/2 entry at CYP2B6 is listed as “∞”; in data set [1] (dog whole blood, 37C) it was “∞”; at CYP2A6 it was “∞”. Besides, the “Remaining Percentages (%) 0 min” value in data set [1] (dog whole blood, 37C) worked out at 100.00%. In addition, the “Substrates of CYP1A2” value at CYP1A2 is given as “not metabolized”; at CYP1A2 (listed as R), “no R”. Besides, the “signal, D2S (h) (agonist radioligand)” value in data set [2] is reported as 0.23%.

For orientation: half-life means the time in which the quantity being followed falls by half. In the case of `O[C@](CCN1CCCCC1)(c1ccccc1)C1CCCCC1` [(S)-THP, (S)-trihexyphenidyl], the “non-muscarinic receptors signaled through” value in data set [3] (greater than 25% signal) was “nine”. The CLint at CYP2B6 came to 0.00 µL/min/pmol; on CYP2A6 it was 0.00 µL/min/pmol; on CYP1A2 it was 0.20 µL/min/pmol. The t1/2 result on CYP2B6 and on CYP2A6 was “∞” throughout. For the same compound, the “Substrates of CYP1A2” value was “is metabolized” at CYP1A2; “S and Rac” at CYP1A2 (listed as S). Further, the half-life on CYP1A2 (human) came to 34.6 min. Moreover, in data set [2], the “signal, D2S (h) (agonist radioligand)” value worked out at 35.79%.

Take `C[C@@H](C[N+](C)(C)C)OC(N)=O.[Cl-]` [(S)-BTC, (S)-bethanechol]: the “antagonism at muscarinic receptors of the panel” value in data set [3] (only muscarinic receptors) is recorded as “greater than 50%”. Besides, the “Remaining Percentages (%) 0 min” value in data set [1] (dog whole blood, 37C) came to 100.00%. Moreover, the t1/2 entry in data set [1] (dog, blood) is “∞”.

The record behind these values is patent US12290513B2, “Therapeutic methods and compositions for treating movement disorders” (Vima Therapeutics, Inc., priority 2023, dated 2025).
